# The source made the active and inactive calls.
# What was measured:
# [1] = target: T1, Fructose-bisphosphate aldolase (Mycobacterium tuberculosis, UniProt P9WQA3); test: Fluorescence-based biochemical high throughput dose response assay for inhibitors of the fructose-bisphosphate aldolase (FBA) of M. tuberculosis.; assay type: functional
# T1 sequence (P9WQA3 whole entry): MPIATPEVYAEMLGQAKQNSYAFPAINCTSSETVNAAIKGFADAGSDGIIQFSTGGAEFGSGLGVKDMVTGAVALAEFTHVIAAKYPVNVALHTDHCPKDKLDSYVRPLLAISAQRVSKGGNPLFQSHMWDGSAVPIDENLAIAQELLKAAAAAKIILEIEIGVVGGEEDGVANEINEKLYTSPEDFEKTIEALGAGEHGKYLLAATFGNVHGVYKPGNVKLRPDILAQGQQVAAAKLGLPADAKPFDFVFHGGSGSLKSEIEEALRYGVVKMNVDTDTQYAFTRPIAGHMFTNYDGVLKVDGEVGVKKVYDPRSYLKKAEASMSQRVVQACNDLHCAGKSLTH
# [2] = target: T2, Methionyl-tRNA synthetase, putative (Trypanosoma brucei brucei, UniProt Q38C91); assay type: functional, Trypanosoma brucei brucei strain 927/4 GUTat10.1
# T2 sequence (Q38C91 whole entry): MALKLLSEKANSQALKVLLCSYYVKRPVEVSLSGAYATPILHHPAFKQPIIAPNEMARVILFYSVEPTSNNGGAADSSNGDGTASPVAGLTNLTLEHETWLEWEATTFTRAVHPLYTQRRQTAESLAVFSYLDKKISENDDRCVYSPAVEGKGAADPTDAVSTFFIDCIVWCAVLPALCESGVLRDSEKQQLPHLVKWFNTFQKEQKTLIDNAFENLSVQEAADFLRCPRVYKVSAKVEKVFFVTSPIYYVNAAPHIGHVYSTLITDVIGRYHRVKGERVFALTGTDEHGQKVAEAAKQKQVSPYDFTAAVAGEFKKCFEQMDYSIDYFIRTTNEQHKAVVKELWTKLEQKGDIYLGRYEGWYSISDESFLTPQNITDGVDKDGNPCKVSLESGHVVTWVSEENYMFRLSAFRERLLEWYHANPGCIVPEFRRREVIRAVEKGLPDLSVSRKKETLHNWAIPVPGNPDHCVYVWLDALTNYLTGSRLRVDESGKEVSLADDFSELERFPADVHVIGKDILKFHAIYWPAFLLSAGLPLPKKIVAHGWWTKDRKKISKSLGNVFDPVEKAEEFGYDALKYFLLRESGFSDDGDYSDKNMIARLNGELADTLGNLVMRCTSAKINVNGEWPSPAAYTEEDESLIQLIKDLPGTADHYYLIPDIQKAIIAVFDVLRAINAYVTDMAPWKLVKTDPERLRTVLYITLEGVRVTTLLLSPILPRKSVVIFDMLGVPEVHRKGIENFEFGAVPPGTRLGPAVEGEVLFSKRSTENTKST
# [3] = target: T2, Methionyl-tRNA synthetase, putative; assay type: functional, Trypanosoma brucei brucei strain 927/4 GUTat10.1; remark: listed apart in the source
# [4] = Counterscreen for inhibitors of Trypanosoma brucei methionyl tRNA synthetase (MetRS): Luminescence-based cell-based high throughput dose response assay to identify compounds that are cytotoxic to Jurkat human T lymphocyte cells.; assay type: functional
# cells = assay type: functional, cell-based; conditions: HEK-CNG
# Galanin receptor type 3 = target: T3, Galanin receptor type 3 (Homo sapiens, UniProt O60755); test: Fluorescence-based cell-based primary high throughput dose response assay to identify antagonists of the Galanin Receptor 3 (GalR3).; assay type: functional
# T3 sequence (O60755 whole entry): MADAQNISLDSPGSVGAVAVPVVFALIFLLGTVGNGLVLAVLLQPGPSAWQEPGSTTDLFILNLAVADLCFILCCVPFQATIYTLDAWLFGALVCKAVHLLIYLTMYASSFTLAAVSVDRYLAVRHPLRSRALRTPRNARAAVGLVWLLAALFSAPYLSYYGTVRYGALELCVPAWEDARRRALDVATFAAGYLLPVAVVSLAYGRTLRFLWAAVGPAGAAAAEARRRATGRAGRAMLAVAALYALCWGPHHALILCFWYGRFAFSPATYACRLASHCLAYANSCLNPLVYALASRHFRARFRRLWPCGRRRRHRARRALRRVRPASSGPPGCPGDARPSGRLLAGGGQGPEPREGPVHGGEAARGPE
# [5] = Fluorescence-based cell-based high throughput dose response assay for inhibitors of the interaction of nucleotide-binding oligomerization domain containing 2 (NOD2) and the receptor-interacting serine-threonine kinase 2 (RIPK2).; assay type: functional, Homo sapiens
# [6] = target: T4, Long-chain-fatty-acid--AMP ligase FadD28 (Mycobacterium tuberculosis, UniProt P9WQ59); test: Fluorescence polarization aasay to screen for inhibitors that compete for the binding of FadD28 to a bisubstrate Measured in Biochemical System Using Plate Reader - 2147-01_Inhibitor_Dose_CherryPick_Activity.; assay type: functional, Mycobacterium tuberculosis H37Rv
# T4 sequence (P9WQ59 whole entry): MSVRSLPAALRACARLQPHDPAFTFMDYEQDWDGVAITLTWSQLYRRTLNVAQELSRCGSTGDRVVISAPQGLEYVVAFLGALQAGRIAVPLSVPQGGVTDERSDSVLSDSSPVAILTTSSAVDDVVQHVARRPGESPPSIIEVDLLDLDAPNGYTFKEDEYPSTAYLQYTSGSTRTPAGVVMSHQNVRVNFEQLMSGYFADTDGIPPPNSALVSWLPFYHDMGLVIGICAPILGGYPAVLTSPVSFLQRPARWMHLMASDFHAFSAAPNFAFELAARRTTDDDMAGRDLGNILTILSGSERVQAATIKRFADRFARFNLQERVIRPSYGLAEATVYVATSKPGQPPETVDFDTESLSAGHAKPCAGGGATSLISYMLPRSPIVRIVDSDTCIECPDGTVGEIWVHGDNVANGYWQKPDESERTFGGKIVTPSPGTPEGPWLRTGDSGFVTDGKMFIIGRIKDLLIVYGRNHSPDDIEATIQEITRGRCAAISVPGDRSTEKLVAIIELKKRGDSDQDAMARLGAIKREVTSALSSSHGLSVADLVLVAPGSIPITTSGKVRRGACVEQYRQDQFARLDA
# Albumin = Albumin (Bos taurus, UniProt P02769); test: Counterscreen for inhibitors of T-cell receptor (TCR)-CD3 interaction: Fluorescence-based biochemical high throughput dose response assay to identify inhibitors of T-cell receptor (TCR)-CD3 interaction using a TAMRA-labeled BSA probe.; assay type: functional
# Sequence of Albumin (P02769 whole entry): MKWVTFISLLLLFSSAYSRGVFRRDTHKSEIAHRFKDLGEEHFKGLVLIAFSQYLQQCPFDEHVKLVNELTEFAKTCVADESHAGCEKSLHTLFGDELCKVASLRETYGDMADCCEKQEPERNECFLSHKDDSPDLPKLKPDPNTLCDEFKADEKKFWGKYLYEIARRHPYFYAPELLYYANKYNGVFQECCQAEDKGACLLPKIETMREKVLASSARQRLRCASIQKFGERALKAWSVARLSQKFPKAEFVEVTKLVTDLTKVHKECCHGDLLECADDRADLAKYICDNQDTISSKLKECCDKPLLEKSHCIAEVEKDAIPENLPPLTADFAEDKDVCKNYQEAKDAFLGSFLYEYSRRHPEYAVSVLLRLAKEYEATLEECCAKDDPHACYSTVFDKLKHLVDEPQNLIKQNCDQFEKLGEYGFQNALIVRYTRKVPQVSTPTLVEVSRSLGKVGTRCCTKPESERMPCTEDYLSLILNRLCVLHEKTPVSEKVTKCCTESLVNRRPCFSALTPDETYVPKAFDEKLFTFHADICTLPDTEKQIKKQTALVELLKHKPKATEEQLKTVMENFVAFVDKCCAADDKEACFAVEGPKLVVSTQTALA
# 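Throughout, for EC50: target is galanin receptor GalR3 read with a cAMP biosensor in HEK293 cells.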
smiles,measurement,setting,value
COc1cc2c(cc1N=C(S)Nc1cccc(C)c1)oc1ccccc12,IC50,[1],5.82 µM (active)
OC(c1cc(Cl)cc(Cl)c1)c1nc(-c2ccccc2F)c[nH]1 (stereo not drawn),IC50,[2],9.87 µM (active)
same,IC50,[3],6.33 µM (active)
same,IC50,[4],74.4 µM (inactive)
O=C(COc1ccc(C(=O)c2ccccc2)cc1)Nc1cccnc1,EC50,cells,> 29.9 µM (inactive)
same,IC50,Galanin receptor type 3,0.399 µM (active)
CC1=CC2OC3CC4OC(=O)C=CC=CC(C(C)O)OCC(O)C(C)CC(=O)OCC2(CC1O)C4(C)C31CO1 (stereo not drawn),IC50,[5],49.8 µM (inactive)
CC(=O)c1cccc(NC(S)=NC2CCCCCCC2)c1,AC50,[6],> 100 µM (inactive)
N#CCC(=O)N/N=C/c1ccc(N2N=C(c3ccccc3)CC2c2ccccc2)cc1 (stereo not drawn),IC50,[1],0.198 µM (active)
O=C(CSc1nc2cc3ccccc3cc2[nH]1)Nc1ccc(F)cc1,IC50,[2],119 µM (inactive)
same,IC50,[3],100 µM (inactive)
same,IC50,[4],51.7 µM (inactive)
Cc1cc(C)c2c(N)c(C(=O)NN)sc2n1,IC50,Albumin,> 94.1 µM (inactive)
